{
  "source": "patent US7977308B2",
  "about": "“Lys-Thr dipeptides and their use” (Sederma, priority 2005, dated 2011)",
  "type_in_all_cases": "cell-based",
  "key": {"[1]": {"tested_on": "Normal Human Dermal Fibroblasts (NHDF)", "test": "Survival estimated on cell layer using fluorescent probe Hoescht 33258", "settings": "for cell proliferation / number of cells: after 3 days of culture", "protocol": "(§1) Normal Human Dermal Fibroblasts (NHDF) were cultivated in culture plates in an appropriate culture medium (i.e. complete DMEM with fetal calf serum). After cell anchorage, cell layers (n=5 replicates) were rinsed with saline buffer and contact with molecules to be tested were performed in a complete DMEM without fetal calf serum. This medium contained ascorbate (sodium salt) and beta-aminopropionitrile, monofumarate. Two independent experimentations were performed for each di-peptide.\n(§2) After 3 days of incubation, supernatants were collected and frozen. Survival was estimated on cell layer using the fluorescent probe Hoescht 33258. Collagen I was estimated using an original direct ELISA method. Fibronectin was estimated using ELISA commercial kit."}, "[2]": {"tested_on": "Normal Human Dermal Fibroblasts (NHDF)", "test": "Quantification of Collagen I synthesis using human dermal fibroblasts (direct ELISA)", "settings": "3 days of incubation", "protocol": "(§3) Products were tested from 0.5 to 4 ppm depending of their solubility or toxicity. Pal-KTTKS was tested from 2 to 8 ppm.\n(§4) Pal KTTKS (Lys-Thr-Thr-Lys-Ser), Pal KT (Lys-Thr), Pal KS (Lys-Ser) were prepared in Sederma Peptide Synthesis Laboratory. TGF-betal: 10^E-6%, was the positive control for collagen I and Fibronectin studies.\n(§5) For this study, di-peptides were linked to the Palmitoic acid and were compared to Pal-KTTKS.\nas §1, §2\n(§6) Criteria: TGF-b1 should be promoter of Collagen I and Fibronectin synthesis. Statistical analysis were performed on Collagen I data (n=5/assay) or Fibronectin data (n=5/assay). Results obtained with molecules were compared to negative control. All data were ng/10^E6 cells. A Student t test for non paired values was used; significativity was obtained if p<0.05 or p<0.01.\n(§7) The percents in the tables above were calculated from ng/10E6 data and compared to the negative control."}, "[3]": {"tested_on": "Normal Human Dermal Fibroblasts (NHDF)", "test": "Quantification of Fibronectin synthesis using human dermal fibroblasts (ELISA commercial kit)", "settings": "3 days of incubation", "protocol": "as §3, §4, §5, §1, §2, §6, §7"}},
  "note": "Where no end group is shown, it is not given here. The star is where a group is joined. Palmitoyl = CCCCCCCCCCCCCCCC(=O)*",
  "data": [
    {"compound": "CCCCCCCCCCCCCCCC(=O)N[C@@H](CCCCN)C(=O)N[C@@H](CO)C(=O)O", "note": "[Pal KS]", "values": [
      {"measurement": "toxicity on the cell layer", "setting": "[1]; 4 ppm", "value": "seemed to induce a light toxicity"}
    ]},
    {"compound": "Pal KTTKS: Palmitoyl Lys-Thr-Thr-Lys-Ser, considered as a benchmark (Palmitoyl-KTTKS)", "values": [
      {"measurement": "COLLAGEN I Mean, percent of negative control", "setting": "[2]; 2 ppm", "value": "+5%"},
      {"measurement": "COLLAGEN I Mean, percent of negative control", "setting": "[2]; 4 ppm", "value": "+49%"},
      {"measurement": "COLLAGEN I Mean, percent of negative control", "setting": "[2]; 4 ppm, listed as Pal-KTTKS", "value": "+49%"},
      {"measurement": "COLLAGEN I Mean, percent of negative control", "setting": "[2]; 6 ppm", "value": "+111%"},
      {"measurement": "COLLAGEN I Mean, percent of negative control", "setting": "[2]; 6 ppm, listed as Pal-KTTKS", "value": "+111%"},
      {"measurement": "COLLAGEN I Mean, percent of negative control", "setting": "[2]; 8 ppm", "value": "+144%"},
      {"measurement": "COLLAGEN I Mean, percent of negative control", "setting": "[2]; 8 ppm, listed as Pal-KTTKS", "value": "+144%"},
      {"measurement": "FIBRONECTIN Mean, percent of negative control", "setting": "[3]; 2 ppm", "value": "+20%"},
      {"measurement": "FIBRONECTIN Mean, percent of negative control", "setting": "[3]; 2 ppm, listed as Pal KTRKS", "value": "probably active"},
      {"measurement": "cell proliferation / number of cells", "setting": "[1]", "value": "unchanged"}
    ]},
    {"compound": "Pal-Lys-Thr-OH [Pal KT]", "values": [
      {"measurement": "COLLAGEN I Mean, percent of negative control", "setting": "[2]; 1 ppm", "value": "+21%"}
    ]},
    {"compound": "TGF-beta: positive control for collagen I and Fibronectin studies", "values": [
      {"measurement": "COLLAGEN I Mean, percent of negative control", "setting": "[2]; 10 ppb", "value": "+95%"},
      {"measurement": "COLLAGEN I Mean, percent of negative control", "setting": "[2]; 10 ppb, listed as TGF-b1", "value": 95, "unit": "%"},
      {"measurement": "FIBRONECTIN Mean, percent of negative control", "setting": "[3]; 10 ppb", "value": "+69%"},
      {"measurement": "FIBRONECTIN Mean, percent of negative control", "setting": "[3]; 10 ppb, listed as TGF-b1", "value": 69, "unit": "%"},
      {"measurement": "cell proliferation / number of cells", "setting": "[1]", "value": "significant increase of cell proliferation"}
    ]}
  ]
}
